In the experiment the target is T1, p70S6K1 (His-actS6K1; Ribosomal protein S6 kinase 1) (Homo sapiens, UniProt P23443, T412D).
T1 construct: gene RPS6KB1; 6xHis-tagged S6K1 residues 3-398 (ΔAID), phosphorylated at T229 by co-expressed PDPK1(ΔPH)
Briefly: AlphaScreen kinase assay with biotinylated rpS6 peptide, […] ATP, purified enzyme. It is filed as biochemical.

T1 sequence (P23443 26-421 T412D): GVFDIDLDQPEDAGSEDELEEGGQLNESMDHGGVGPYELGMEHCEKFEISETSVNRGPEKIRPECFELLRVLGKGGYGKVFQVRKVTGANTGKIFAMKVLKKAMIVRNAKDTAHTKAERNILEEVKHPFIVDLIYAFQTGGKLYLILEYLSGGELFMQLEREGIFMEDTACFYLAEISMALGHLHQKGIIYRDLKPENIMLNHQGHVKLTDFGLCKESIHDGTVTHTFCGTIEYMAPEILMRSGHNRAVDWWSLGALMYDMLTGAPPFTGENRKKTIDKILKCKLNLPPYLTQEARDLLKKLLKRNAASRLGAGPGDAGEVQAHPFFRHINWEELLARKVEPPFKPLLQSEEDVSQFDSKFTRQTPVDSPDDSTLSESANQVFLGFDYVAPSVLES

In the case of `Cn1cc(-c2ccc(F)c(C(F)(F)F)c2)nc1C1CCN(c2ncnc3[nH]ncc23)CC1` [LY2584702], the IC50 came to 4.2 nM.

(Values after PMC11742003, “Co-expression of the RPS6KB1 and PDPK1 genes for production of activated p70S6K1 using bac-to-bac baculovirus expression system” (Molecular Biology Reports, 2025).)
